PubChem BioAssay AID1919017 (Molecular Pharmacology Branch, DTP, NCI, 2023)

System: SW1271 complex spheroids with HUVEC/MSC, growth, % test/control
Assay: Anticancer human tumor SW1271 cell line growth inhibition [AhR];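 also: spheroids exposed to agents for 7 days before readout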
Details: for IC50: curve of first compound; for viability, T/C: stronger effect = lower value
Excerpt: Multicellular complex tumor spheroid response to aryl hydrocarbon receptor antagonists in combination with a variety of drugs and investigational agents in selected tumor cell lines
The current study was undertaken to assess response to aryl hydrocarbon receptor antagonists in combination with standard-of-care drugs and investigational agents in solid tumor complex spheroid models. Complex spheroids include a stromal component modeled by human endothelial cells (HUVEC) and fibroblasts modeled by human mesenchymal stem cells (MSCs). The concentration ranges selected for each drug and investigational agent were based upon clinically achievable concentrations if the clinical Cmax of the agent was known.
Compounds. The drugs and investigational agents: BAY 2416964 (NSC825713), GNF351 (NSC835774), CH-223191 (NSC835775), CPI-455 (NSC825282), aza-TdCyd (NSC777586), decitabine (NSC127716), belinostat (NSC758774), entinostat (NSC756642), pevonedistat (NSC761192), tazemetostat (NSC777109), talazoparib (NSC765396), olaparib (NSC753686), selinexor (NSC780203), nedisertib (M3814, NSC802822), bortezomib (NSC756655), venetoclax (NSC766270), doxorubicin (NSC123127), elimusertib (BAY189344, NSC800525), ceralasertib (AZD6738, NSC777638), TAK-243 (NSC785004), alisertib (NSC759677), etoposide (NSC141540), topotecan (NSC609699), eribulin (NSC707389), gemcitabine (NSC613327), carboplatin (NSC241240), cisplatin (NSC119875), and SN-38 (NSC673596) were obtained from the National Cancer Institute (NCI) Developmental Therapeutics Program Chemical Repository (32). The FDA-approved anticancer drug set is available from the Developmental Therapeutics Program at https://dtp.cancer.gov/organization/dscb/obtaining/available plates.htm. […] The stock solutions were prepared in dimethyl sulfoxide (DMSO, Sigma-Aldrich, St. Louis, MO, cat. D2650), except for the platinum compounds which were prepared in saline (Quality Biological, Gaithersburg, MD, cat. 114-055-101), at 800-fold the tested concentration and stored at -70 degrees C prior to their use. All drugs and investigational agents were tested over a range starting from a high concentration at or near the clinical Cmax and decreasing in half-log increments. If the clinical Cmax for an agent had not been determined, the highest concentration tested was 10 microM (Table 1).
Cell Culture. All cells were maintained in an incubator at 37 degrees C and 5% CO2 with 95% humidity. The PDC lines were cultured according to standard operating procedures established by the NCI PDMR (https://pdmr.cancer.gov). Briefly, all PDCs were thawed and cultured in Matrigel-coated flasks prepared with a working solution of 1X Ham's F-12 nutrient mix, without supplementation (Invitrogen, Waltham, MA, cat. 11765054), 100 U/mL penicillin-streptomycin (Invitrogen, cat. 15140122), and 2.5% Matrigel (Corning Inc., Corning, NY, cat. 354248) for the first three passages. All PDCs were cultured in complete DMEM/F-12 media containing advanced DMEM/F-12 (Invitrogen, cat. 12634028), 4.9% defined fetal bovine serum, heat inactivated (HyClone Laboratories Inc., Logan, UT, cat. SH30070.03HI), 389 ng/mL hydrocortisone (Sigma-Aldrich, cat. H4001), 9.7 ng/mL human EGF recombinant protein (Invitrogen, cat. PHG0313), 23.4 microg/mL adenine (Sigma-Aldrich, cat. A2786), 97.3 U/mL penicillin-streptomycin (Invitrogen, cat. 15140122), 1.9 mM L-glutamine (Invitrogen, cat. 25030081), and 9.7 microM Y-27632 dihydrochloride (Tocris Bioscience, Bristol, United Kingdom, cat. 1254). The PDCs were cultured in complete DMEM/F12 media without 10 microM Y-27632 dihydrochloride for at least two passages prior to the screen. The established cell lines NCI-H1341 and […] were cultured in DMEM/F-12, HEPES (Invitrogen, cat. 11330032), 5% defined fetal bovine serum (HyClone Laboratories Inc., cat. SH30070.03), ITS premix universal culture supplement [insulin (5 microg/mL), transferrin (5 microg/mL), and selenious acid (5 ng/mL)] […]

[1] = second compound 0.1 µM, first compound 0.0316 µM
[2] = second compound 0.1 µM, first compound 0.1 µM
[3] = second compound 0.1 µM, first compound 0.316 µM
[4] = second compound 0.1 µM, first compound 1 µM
[5] = second compound 0.1 µM, first compound 3.16 µM
[6] = second compound 0.1 µM, first compound 10 µM
[7] = second compound 0.316 µM, first compound 0.0316 µM
[8] = second compound 0.316 µM, first compound 0.1 µM
[9] = second compound 0.316 µM, first compound 0.316 µM
[10] = second compound 0.316 µM, first compound 1 µM
[11] = second compound 0.316 µM, first compound 3.16 µM
[12] = second compound 0.316 µM, first compound 10 µM
[13] = second compound 1 µM, first compound 0.0316 µM
[14] = second compound 1 µM, first compound 0.1 µM
[15] = second compound 1 µM, first compound 0.316 µM
[16] = second compound 1 µM, first compound 1 µM
[17] = second compound 1 µM, first compound 3.16 µM
[18] = second compound 1 µM, first compound 10 µM
[19] = second compound 3.16 µM, first compound 0.0316 µM
[20] = second compound 3.16 µM, first compound 0.1 µM
[21] = second compound 3.16 µM, first compound 0.316 µM
[22] = second compound 3.16 µM, first compound 1 µM
[23] = second compound 3.16 µM, first compound 3.16 µM
[24] = second compound 3.16 µM, first compound 10 µM
[25] = second compound 10 µM, first compound 0.0316 µM
[26] = second compound 10 µM, first compound 0.1 µM
[27] = second compound 10 µM, first compound 0.316 µM
[28] = second compound 10 µM, first compound 1 µM
[29] = second compound 10 µM, first compound 3.16 µM
[30] = second compound 10 µM, first compound 10 µM

CC(C)CC(NC(=O)C(Cc1ccccc1)NC(=O)c1cnccn1)B(O)O (stereo not given) + CC(CO)NC(=O)c1cc(-c2ccc(Cl)cc2)nn(-c2cnn(C)c2)c1=O
IC50 (second compound 0.1 µM): 0.00495 µM
IC50 (second compound 0.316 µM): 0.00508 µM
IC50 (second compound 1 µM): 0.00533 µM
IC50 (second compound 3.16 µM): 0.00477 µM
IC50 (second compound 10 µM): 0.00441 µM
viability, T/C (second compound 0.1 µM, first compound 0.000949 µM): 116%
viability, T/C (second compound 0.1 µM, first compound 0.003 µM): 86.6%
viability, T/C (second compound 0.1 µM, first compound 0.00949 µM): 2.31%
viability, T/C (second compound 0.1 µM, first compound 0.03 µM): 0.27%
viability, T/C (second compound 0.1 µM, first compound 0.0949 µM): 0.34%
viability, T/C (second compound 0.1 µM, first compound 0.3 µM): 0.41%
viability, T/C (second compound 0.316 µM, first compound 0.000949 µM): 92.5%
viability, T/C (second compound 0.316 µM, first compound 0.003 µM): 88.3%
viability, T/C (second compound 0.316 µM, first compound 0.00949 µM): 4.62%
viability, T/C (second compound 0.316 µM, first compound 0.03 µM): 0.41%
viability, T/C (second compound 0.316 µM, first compound 0.0949 µM): 0.43%
viability, T/C (second compound 0.316 µM, first compound 0.3 µM): 0.4%
viability, T/C (second compound 1 µM, first compound 0.000949 µM): 99.9%
viability, T/C (second compound 1 µM, first compound 0.003 µM): 97.5%
viability, T/C (second compound 1 µM, first compound 0.00949 µM): 2.34%
viability, T/C (second compound 1 µM, first compound 0.03 µM): 0.34%
viability, T/C (second compound 1 µM, first compound 0.0949 µM): 0.31%
viability, T/C (second compound 1 µM, first compound 0.3 µM): 0.55%
viability, T/C (second compound 3.16 µM, first compound 0.000949 µM): 66.9%
viability, T/C (second compound 3.16 µM, first compound 0.003 µM): 96.6%
viability, T/C (second compound 3.16 µM, first compound 0.00949 µM): 3.1%
viability, T/C (second compound 3.16 µM, first compound 0.03 µM): 0.44%
viability, T/C (second compound 3.16 µM, first compound 0.0949 µM): 0.3%
viability, T/C (second compound 3.16 µM, first compound 0.3 µM): 0.38%
viability, T/C (second compound 10 µM, first compound 0.000949 µM): 73.6%
viability, T/C (second compound 10 µM, first compound 0.003 µM): 75.2%
viability, T/C (second compound 10 µM, first compound 0.00949 µM): 1.45%
viability, T/C (second compound 10 µM, first compound 0.03 µM): 0.5%
viability, T/C (second compound 10 µM, first compound 0.0949 µM): 0.51%
viability, T/C (second compound 10 µM, first compound 0.3 µM): 0.39%

Nc1ccccc1NC(=O)c1ccc(CNC(=O)OCc2cccnc2)cc1 + CC(CO)NC(=O)c1cc(-c2ccc(Cl)cc2)nn(-c2cnn(C)c2)c1=O
IC50 (second compound 0.1 µM): 1.04 µM
IC50 (second compound 0.316 µM): 0.838 µM
IC50 (second compound 1 µM): 0.676 µM
IC50 (second compound 3.16 µM): 1 µM
IC50 (second compound 10 µM): 0.294 µM
viability, T/C [1]: 92.2%
viability, T/C [2]: 89.6%
viability, T/C [3]: 78.5%
viability, T/C [4]: 43%
viability, T/C [5]: 34.8%
viability, T/C [6]: 10.7%
viability, T/C [7]: 103%
viability, T/C [8]: 85.2%
viability, T/C [9]: 67.3%
viability, T/C [10]: 41.4%
viability, T/C [11]: 35%
viability, T/C [12]: 9.29%
viability, T/C [13]: 87.7%
viability, T/C [14]: 82%
viability, T/C [15]: 60.4%
viability, T/C [16]: 40.8%
viability, T/C [17]: 30.2%
viability, T/C [18]: 10.4%
viability, T/C [19]: 65.2%
viability, T/C [20]: 64.7%
viability, T/C [21]: 65.5%
viability, T/C [22]: 44.9%
viability, T/C [23]: 34.5%
viability, T/C [24]: 11%
viability, T/C [25]: 70.2%
viability, T/C [26]: 63%
viability, T/C [27]: 43.5%
viability, T/C [28]: 43.6%
viability, T/C [29]: 19%
viability, T/C [30]: 11.4%

O=C(C=Cc1cccc(S(=O)(=O)Nc2ccccc2)c1)NO + CC(CO)NC(=O)c1cc(-c2ccc(Cl)cc2)nn(-c2cnn(C)c2)c1=O
IC50 (second compound 0.1 µM): 1.2 µM
IC50 (second compound 0.316 µM): 0.768 µM
IC50 (second compound 1 µM): 1.5 µM
IC50 (second compound 3.16 µM): 0.914 µM
IC50 (second compound 10 µM): 0.793 µM
viability, T/C [1]: 98.4%
viability, T/C [2]: 92.5%
viability, T/C [3]: 75.4%
viability, T/C [4]: 57.9%
viability, T/C [5]: 24.7%
viability, T/C [6]: 9.02%
viability, T/C [7]: 92.4%
viability, T/C [8]: 87.6%
viability, T/C [9]: 71.1%
viability, T/C [10]: 45.5%
viability, T/C [11]: 16.6%
viability, T/C [12]: 11.7%
viability, T/C [13]: 85.9%
viability, T/C [14]: 80.8%
viability, T/C [15]: 75.5%
viability, T/C [16]: 63%
viability, T/C [17]: 28.4%
viability, T/C [18]: 9.03%
viability, T/C [19]: 85%
viability, T/C [20]: 73.1%
viability, T/C [21]: 65.2%
viability, T/C [22]: 51.4%
viability, T/C [23]: 27%
viability, T/C [24]: 10.7%
viability, T/C [25]: 90.2%
viability, T/C [26]: 76.2%
viability, T/C [27]: 54.4%
viability, T/C [28]: 57.1%
viability, T/C [29]: 26.7%
viability, T/C [30]: 9.34%
